# Laboratory results from patent publication US20040087597A1, “Preventives and remedies for complications of diabetes” (priority 2000, published 2004).
# Columns and labels:
# [1] = system: aortic smooth muscle cells of rats; assay: Secretion of osteopontin protein into conditioned medium from aortic smooth muscle cells of rats (Western blotting); format: cell-based, rat; details: normal glucose; pitavastatin calcium 0.03 and 0.3 μM, atorvastatin 0.3 and 3 μM; 48 hours; FIG. 1
# Procedure: The effect of pitavastatin calcium and atorvastatin on the secretion of osteopontin protein into the conditioned culture medium from aortic smooth muscle cells of rats cultured under the normal glucose concentration were measured according to the method described below.
# At first, aortic smooth muscle cells of rats (5 to 10 passage culture) were seeded in a 6-well culture plate and the confluent cultures were attained by culturing in low glucose (1000 mg/L) Dulbecco's modified Eagle's medium (DMEM) with 10% fetal bovine serum (FBS: BioWhittaker Co. Ltd.) under 5% CO2 atmosphere at 37° C. […]
# After centrifugation, sedimented DE52 gels were washed several times with the same buffer, and 60 μL of 0.2M Tris hydrochloride buffer solution (pH 6.8) containing 5% of 2-mercaptoethanol, 4% of SDS, […], 20% of glycerol and 0.01% of bromophenol blue was added, and heat-treated for 5 minutes at 95° C. […] Chemiluminescences were detected on X-ray film using ECL™ (Amersham Pharmacia Biotech Co. Ltd.). The density of the bands were analyzed according to NIH Image. […]
# The density of osteopontin protein measured with NIH Image Analysis for various concentration of pitavastatin calcium are shown in FIG. 1(a), and the density of osteopontin protein measured with NIH Image Analysis for various concentration of atorvastatin are shown in FIG. 1(b).
# osteopontin mRNA = assay: Expression of osteopontin mRNA in the kidney and blood vessels of STZ-induced diabetic rats and normal rats (Northern blotting); format: in vivo, rat; details: for Kidney OPNmRNA/18S / Aorta OPNmRNA/18S / Aorta % Inhibition / Kidney % Inhibition: oral 3 mg/kg once a day, 7 days; for Kidney OPNmRNA/18S / Aorta OPNmRNA/18S: mean ± standard deviation, 3 mg/kg
# Procedure: The effects of pitavastatin calcium on the expression of osteopontin mRNA in the kidney and blood vessels of STZ-induced diabetic rats were investigated according to the method described below.
# Namely, 35 mg per kg of body weight of STZ dissolved in the concentration of 50 mg/mL of physiological saline was injected into the tail vein of male Wistar rats (body weight: about 300 g), and the animals were orally administered 1 mL/kg of body weight of 0.5% carboxymethylcellulose solution containing the test drug (pitavastatin calcium) in the concentration of 3mg/mL with a gastric sonde. Thereafter the oral administration was performed once a day by same volume and at fixed time during the experiment. The same volume of only 0.5% carboxymethylcellulose was given by the forced oral administration for the control group. The venous blood was withdrawn from the tail vein on the second day of the experiment and the presence of 200 mg/dL or above of the blood sugar level was confirmed.
# 24 hours after 7 days administration, the blood was withdrawn under the ether anesthesia, and kidneys and thoracic aorta were isolated. The predetermined amount of the tissue piece in ISOGEN (Wako Pure Chemicals K.K.) was homogenized in a polytron homogenizer and the total RNA was extracted. The total RNA thus obtained was precipitated by using isopropanol. The precipitate was washed with 70% ice cold ethanol and stored at −80° C. in 70% ethanol.
# Osteopontin mRNA in the total RNA obtained was detected by the conventional Northern blotting method. That is to say that the total RNA precipitated with 70% ethanol was subjected to centrifugation at 15000 rpm, the precipitate was dried at room temperature after decanting the supernatant and dissolved in a small amount of TE buffer (10 mM Tris-HCl buffer-1 mM EDTA solution). 10 μL out of the solution thus obtained was diluted with 990 μL of TE buffer solution, and the amount of RNA was calculated by measuring the absorbance at 260 nm ultraviolet light of the solution. 40% solution of deionized glyoxal (3.5 μL), 0.1 M of NaHPO4 buffer solution (2.4 μL) and dimethylsulfoxide (11.8 μL) were added to the predetermined amount (10 or 20 μg) of the total RNA (final volume: 6 μL), heated at 50° C. for 1 hour and the total RNA was denatured. 6.3 μL of 10 mM sodium phosphate buffer solution (pH: 6.8) containing 50% glycerol and 0.4% bromophenol blue was added to the solution after the solution was cooled to the room temperature, and then RNA was subjected to electrophoresis using 1.5% agarose gel. RNA was blotted from agarose to nylon membrane in a conventional fashion by using 20×saline-sodium citrate (SSC). The blotted nylon membrane was washed with 2×SSC, and RNA was fixed on the nylon membrane by heating it to 80° C. in vacuo. DNA fragment encoding osteopontin was digested from pCRIIrOP vector with Eco R1 endonuclease and purified with Probe Quant™G-50 Micro Columns (Amersham Pharmacia Biotech Co. Ltd.). DNA fragment encoding Osteopontin thus obtained was hybridized for overnight together with the nylon membrane at 65° C. with Rediprime™ II (Amersham Pharmacia Biotech Co. Ltd.) radioactive probe labeled with ^32P radioisotope. Radioisotope level of the probe bound to the nylon membrane was detected on the X-ray film and the density of the bands were analyzed according to NIH Image. […] was used as the RNA internal standard and the amount of the expression was represented with the comparative intensities of the density of the bands. Osteopontin mRNA was similarly measured in the normal rat experiment.
# In Table 1, OPN mRNA/18S represents the ratio of the density of osteopontin mRNA to the density of […] based on the NIH Image Analysis and % inhibition represents that to the respective control groups. The values of OPNmRNA/18S are mean ± standard deviation.
# [2] = system: aortic smooth muscle cells of rats; assay: Expression of osteopontin mRNA in aortic smooth muscle cells of rats, with or without mevalonic acid (northern blotting); format: cell-based, rat; details: FIG. 2(a)
# Procedure: (§1) The effect of mevalonic acid on the suppression with pitavastatin calcium for the expression of osteopontin mRNA and the secretion of osteopontin protein in aortic smooth muscle cells of rats were measured according to the method described below.
# (§2) Aortic smooth muscle cells of rats (5 to 10 passage culture) were seeded in a 6-well culture plate and the confluent cultures were attained by culturing in low glucose (1000 mg/L) DMEM with 10% FBS under 5% CO2 atmosphere at 37° C. Thereafter, the medium was replaced with the medium with pitavastatin calcium (8 μM) and/or mevalonic acid (100 μM), and the cells were cultured for another 48 hours. The medium was again replaced with 1.5 mL of FBS-free medium per well, and the cells were cultured further for 48 hours.
# After the cultivation, the cells adhered to the culture plate were homogenized together with ISOGEN, RNA were extracted exactly as in Example 1, and the amount of osteopontin mRNA was analyzed by northern blotting method.
# (§3) The above measurements were carried out in the three cases when pitavastatin calcium and mevalonic acid were not added, when only pitavastatin calcium was added, and when both pitavastatin calcium and mevalonic acid were added.
# [3] = system: aortic smooth muscle cells of rats; assay: Secretion of osteopontin protein from aortic smooth muscle cells of rats, with or without mevalonic acid (western blotting); format: cell-based, rat; details: FIG. 2(b)
# Procedure: as §1, §2
# At the same time, the conditioned medium was collected, osteopontin protein was absorbed on DE52, subjected to electrophoresis exactly as in Example 2, and the amount of the secreted osteopontin protein was analyzed by western blotting method.
# as §3
# [4] = STZ-induced diabetic rats with drug administration, versus diabetic control
# [5] = healthy rats with drug administration, versus healthy control
# [6] = rats with drug administration, listed as Pitavastatin calcium
# [7] = pitavastatin calcium 8 μM alone, 48 hours
# [8] = pitavastatin calcium 8 μM with addition of mevalonic acid 100 μM
Molecule,Amount of the secretion of osteopontin protein into the conditioned medium [1],"Kidney OPNmRNA/18S (osteopontin mRNA; STZ-induced diabetic rats with drug administration, p = 0.016 vs control)","Kidney OPNmRNA/18S (osteopontin mRNA; STZ-induced diabetic rats with drug administration, p = 0.016 vs control, listed as Pitavastatin calcium)","Aorta OPNmRNA/18S (osteopontin mRNA; STZ-induced diabetic rats with drug administration, p = 0.036 vs control)","Aorta OPNmRNA/18S (osteopontin mRNA; STZ-induced diabetic rats with drug administration, p = 0.036 vs control, listed as Pitavastatin calcium)",Aorta % Inhibition (osteopontin mRNA; [4]),Kidney % Inhibition (osteopontin mRNA; [4]),Influence on the expression of osteopontin in the kidney and the aorta (osteopontin mRNA; healthy rats),Aorta % Inhibition (osteopontin mRNA; [5]),Kidney % Inhibition (osteopontin mRNA; [5]),Aorta OPNmRNA/18S (osteopontin mRNA; rats with drug administration),Kidney OPNmRNA/18S (osteopontin mRNA; rats with drug administration),Aorta OPNmRNA/18S (osteopontin mRNA; [6]),Kidney OPNmRNA/18S (osteopontin mRNA; [6]),"Expression of osteopontin mRNA (ratio to 18S) [2, 7]","Suppressive effect on the expression of osteopontin mRNA [2, 8]","Secretion of osteopontin protein [3, 7]","Suppressive effect on the secretion of osteopontin protein [3, 8]"
CC(C)c1c(C(=O)Nc2ccccc2)c(-c2ccccc2)c(-c2ccc(F)cc2)n1CC[C@@H](O)C[C@@H](O)CC(=O)O [atorvastatin],inhibited with the statistical significance,–,–,–,–,–,–,–,–,–,–,–,–,–,–,–,–,–
"(+)-bis{(3R, 5S, 6E)-7-[2-cyclopropyl4-(4-fluorophenyl)-3-quinolyl]-3,5-dihydroxy-6-heptenoic acid}-calcium [pitavastatin calcium]",inhibited with the statistical significance,1.933 ± 0.874,1.933,1.300,1.300,59.4%,40.2%,did not influence,−1.4%,−24.1%,2.433 ± 0.929,1.667 ± 0.321,2.433,1.667,suppresses,disappear,suppresses,disappear
